Columns and labels:
[1] = tested on: human fluorescent lung organoid (hFLO); test: Bleomycin-induced fibrosis in hFLO with fasudil antifibrotic trial (histochemistry, immunohistochemistry, live confocal imaging); format: cell-based; settings: for lumen area: bleomycin 20 μg mL−1 for 3 days from day 7, then 10 μM fasudil for 4 days, day 14; for collagen deposition (Masson staining) / pro-fibrotic expression (αSMA, fibronectin, PDGFRα; H-DAB): bleomycin 20 μg mL−1 for 3 days, then 10 μM fasudil for 4 days
Experimental: Cell aggregates were grown as described above for 7 days, after which the cell aggregates were treated with 20 μg mL 1 bleomycin (13877, Cayman Chemical Company, MI, USA, stock solution diluted in either PBS or DMSO). Media was changed after 3 days of culture with bleomycin (i.e., at day 10). At day 10, the organoids were weaned off the bleomycin insult and then treated with either 10 μM fasudil (B3523, ApexBio, TX, USA) or with DMSO (control, vehicle used for fasudil). The cultures were kept in treatment media for 4 more days with media changing every two days. Cell aggregates and media were collected and fixed as described above.
Histologically stained samples were imaged and processed with ImageJ software. First, images were converted to an 8-bit greyscale, after which a threshold was applied. The image was then processed five times iteratively with the dilate function to converging boundary cells. […] The “count particles” function was used to measure lumen characteristics. Data was processed in Microsoft Excel, lumen under the size of 200 μm2 were excluded in all analysis except the calculations of total lumen area and lumen percent arca.
The ratios of collagen to tissue in organoids were determined by analyzing images of Masson-Trichrome stained sections. These images were separated into red, blue, and green components using ImageJ using color deconvolution function. For the Masson staining, areas of the blue and red image channels were determined by thresholding and collagen deposition was determined as the ratio of blue area to red area (collagen to tissue). Intensity histograms were created using the ImageJ histogram function on the selected red area, and average pixel intensity was calculated from the histogram output in Microsoft Excel. For H-DAB, the target protein is the brown channel and the hematoxylin is the blue-purple channel.
There is a critical need for viable organotypic models for the human lung to model diseases including pulmonary fibrosis (PF). In order to fill this need, we induced fibrosis using bleomycin in our hFLO model. Bleomycin-induced PF is an extensively used animal-based model for fibrosis, despite significant cellular and molecular differences between mouse and human lungs. Moreover, therapeutics against PF are limited due to lack of organotypic lung models adapted for drug testing and screening. […] This therapy, however, has not yet been validated in a human lung model. Here, we grew hFLO for 7 days and induced fibrosis using 20 μg mL−1 bleomycin for 3 days, after which aggregates were treated with 10 μM fasudil, a ROCK inhibitor for 4 days to observe possible changes in fibrosis (FIG. 5A). […] In PF, there is an observed alveolar and bronchiolar epithelial cell death and fibroblast abundance. We observed that with bleomycin induction, there was a decrease in the epithelial A549 with an increase in fibroblast HFL1 population ([…]).

[2] = tested on: secreted factors from hFLO aggregates; test: Cytokine array of media from hFLO treatment groups; format: cell-based, human; settings: media at day 14
Experimental: The organoid media from the three treatment groups were collected at day 14. The levels of cytokines secreted to the media were immediately evaluated using the Human Cytokine Array C1000 (AAH-CYT-1000-8, Ray Biotech, GA, USA) with minor modifications. Briefly, the membranes were blocked at room temperature for 30 minutes using the blocking buffer. The media from the organoids were transferred onto the membranes and incubated with gentle rocking overnight at 4° C. After washing, the membranes were incubated with the biotinylated antibody cocktail overnight at 4° C. After further washes, the membranes were probed with Streptavidin-CF680R (29072, Biotium, CA, USA 1:1000) for 1 hour at RT. The membranes were imaged using an Odyssey CLx imager (LI-COR, Cambridge, UK) at high resolution and a wavelength of 700 nm. The exported images of the membranes were quantified using gel analysis plugin on FIJI distribution of ImageJ (open source) under the GNU General Public License.
To further confirm the fibrosis in hFLO-bleomycin fibrotic model and the anti-fibrotic effects of fasudil, we collected culture media from the aggregates and performed a cytokine array using 120 common inflammatory factors.

[3] = tested on: A549, EAhy and HFL1 triculture aggregates; test: 3D triculture suspension culture with soluble ECM (self-patterning, growth, fibronectin); format: cell-based, human; settings: 100 μg mL−1 soluble ECM; day 14
Experimental: To calculate the seeding ratios for each cell line, literature search led us to lung alveolar cell ratios to be around 24% epithelial, 30% endothelial, and 37% interstitial. By this, we simplified the seeding ratio to be roughly 1:2:2 (A549 epithelial: EAhy endothelial: HFL1 fibroblast). For suspension-based cultures, a seeding ratio of 1.0×104 to 1.0×10^5 total cells per aggregate was used and was divided to cach of the cell line using the ratio above. 100-200 μL of mixed cell suspension in 3D media or ECM supplemented 3D media were seeded into cach well of the 96-well ULA plate. […]
Triculture cell aggregates were grown for 14 days using either traditional force aggregation (FA) or as supplemented with 300 μg mL^−1 Matrigel®. […] Cell aggregate sections were then selected using the freeform selection tool and measured for area. […]
We then engineered a 3D triculture to model the lung alveolus and the morphological changes accompanying soluble ECM concentration. […] Cell seeding ratios were followed based on endogenous human lung cell composition which we determined to be roughly 1:2:2 (epithelial: interstitial: vascular) (Table S1).

[4] = of 120 common inflammatory factors
[5] = bleomycin 20 μg mL−1, live 3D confocal volumetric analysis

## O=S(=O)(c1cccc2cnccc12)N1CCCNCC1 [fasudil]
[1]
  lumen area: rescued
  collagen deposition (Masson staining): decreased intensity
  pro-fibrotic expression (αSMA, fibronectin, PDGFRα; H-DAB): lowered
[2]
  secretion of pro-angiogenic factors including FGF2 and VEGFA: decreased
  secretion of pro-inflammatory factors (CX3CL1, AREG, CCL3, IL4, IL2, AXL, EGF, IL6 among others): significantly decreased
[2]; [4]
  number of factors significantly changed (Fasudil vs Bleomycin): 56 factors
  number of factors significantly changed between control and fasudil treatment: 36 factors

## collagen I: rat tail collagen I (Sigma-Aldrich), used as soluble ECM supplement
[3]
  aggregate structure (H&E): predominantly compact cell clusters

## bleomycin
[1]; [5]
  epithelial A549 population: decrease
  fibroblast HFL1 population: increase
[1]
  lumen area: decreased lumen area
  collagen deposition (Masson staining): increased collagen deposition
  pro-fibrotic expression (αSMA, fibronectin, PDGFRα; H-DAB): increased
[2]
  secretion of pro-angiogenic factors including FGF2 and VEGFA: increased secretion
  secretion of pro-inflammatory factors (CX3CL1, AREG, CCL3, IL4, IL2, AXL, EGF, IL6 among others): increase
[2]; [4]
  number of factors significantly increased (Control vs Bleomycin): 68 factors

From patent US20240401000A1, “SUSPENSION-BASED 3D CULTURE METHOD FOR ORGANOIDS” (BRIGHAM YOUNG UNIVERSITY, priority 2021, published 2024)
